Measurements from PMC8069799, “Alpha-Glucosidase Inhibitory Diterpenes from Euphorbia antiquorum Growing in Vietnam” (Molecules, 2021).

Key:
[1] = biological target: Saccharomyces cerevisiae α-glucosidase (E.C 3.2.1.20); experiment: Alpha-glucosidase inhibition assay; assay type: biochemical; settings: 0.2 U/mL enzyme, 5.0 mM pNPG, pH 6.9 sodium phosphate buffer, 37 °C, triplicate; read-out: Alpha-glucosidase inhibitory activity IC50
Procedure: The alpha-glucosidase (0.2 U/mL) and substrate (5.0 mM pNPG) were dissolved in 100 mM pH 6.9 sodium phosphate buffer. The inhibitor (50 µL) was preincubated with alpha-glucosidase at 37 °C for 20 min, and then the substrate (40 µL) was added to the reaction mixture. The enzymatic reaction was carried out at 37 °C for 20 min and stopped by adding 0.2 M Na2CO3 (130 μL). Enzymatic activity was quantified by measuring absorbance at 405 nm (CLARIOstar plus, BMG LABTECH, Ortenberg, Germany). All samples were analyzed in triplicate at five different concentrations around the IC50 values, and the mean values were retained. The inhibition percentage (%) was calculated by the following equation:Inhibition (%) = [1 − (Asample/Acontrol)] × 100.(1)

alpha-glucosidase = experiment: Inhibitory type assay of 3 on alpha-glucosidase (Lineweaver–Burk plots, secondary plots); assay type: biochemical, yeast
Procedure: In order to examine the inhibition mechanism of 3, their activity was measured at the different concentration of 4-nitrophenyl […] (pNPG).
The mechanisms of inhibition of alpha-glucosidase by 3 were determined by Lineweaver–Burk plots (Microsoft Excel 2010, Redmond, WA, USA), using methods similar to those reported in the literature. Enzyme inhibition due to various concentrations of the 3 were evaluated by monitoring the effects of different concentrations of the substrate. For Lineweaver–Burk double reciprocal plots 1/enzyme velocity (1/V) vs. 1/substrate concentration (1/[S]), the inhibition type was determined using various concentrations of pNPG (1 mM, 2 mM, and 4 mM) as a substrate in the presence of different concentrations of the test compound (0, 13.8, 27.7, and 55.5 µM). The experiments were carried out in three replicates. The mixtures were incubated at 37 °C and the optical density was measured at 405 nm every 1 min for 30 min with the Clariostar Labtech microplate reader (Ortenberg, Germany). Optimal concentrations of the tested compound were chosen based on the IC50 value. The inhibition constants were obtained graphically from secondary plots (Microsoft Excel 2010, Redmond, WA, USA).

Row | Structure (SMILES) | IC50 [1] | inhibition type (alpha-glucosidase; Lineweaver–Burk plots, Vmax decreased while Km remained constant) | Ki (alpha-glucosidase; pNPG 1, 2, 4 mM, inhibitor 0, 13.8, 27.7, 55.5 µM, secondary plot of slope vs. inhibitor concentration, read-out: inhibition constant (Ki))
1 | CC1(C)C(O)CC(O)C2(C)C3CC4CCC3(CCC12)CC4(O)CO (single isomer, unassigned; ent-1) [Compound 1, ent-1α,3α,16β,17-tetrahydroxyatisane] | 125 µM |  | 
2 | CC1(C)C(=O)CC[C@@]2(C)[C@H]1CC[C@@]13C[C@H](CC[C@@H]12)[C@@](O)(CO)C3 [Compound 6, calliterpenone] | 156 µM |  | 
3 | CC(=O)O[C@H]1CC[C@@]2(C)C3C[C@@H]4CC[C@@]3(CC[C@@H]2C1(C)C)C[C@@]4(O)CO (single isomer, unassigned; ent-3) [Compound 4, ent-3α-acetoxy-16β,17-dihydroxyatisane] | 102 µM |  | 
4 | CC(=O)OC1C(C)C(=O)C23CC(C)C(O)C2(C=C(C)C(O)C(O)C2C1C2(C)C)O3 (centres unmarked) [Compound 7, ingol 12-acetate] | 115 µM |  | 
5 | CCOC(=O)CC[C@]1(C)[C@@H](C(C)(C)O)CC[C@@]23CC[C@@H](C[C@H]21)[C@](O)(CO)C3 (single isomer, unassigned; ent-3) [Compound 2, ethyl ent-3,4-seco-4,16β,17-trihydroxyatisane-3-carboxylate] | 131 µM |  | 
6 | CC1(C)OC[C@@]2(C[C@]34CC[C@H]2C[C@H]3[C@]2(C)CCC(=O)C(C)(C)[C@H]2CC4)O1 [Compound 3, ent-atisane-3-oxo-16β,17-acetonide] | 69.6 µM | noncompetitive inhibitor | 65.8 µM
